Literature values in US8092783B2, “Gadolinium containing prussian blue nanoparticles as nontoxic MRI contrast agents having high relaxivity” (Kent State University, priority 2009, dated 2012).

Conditions: magnetic field strength 1.5 Tesla; commercial or literature agents

CNC[C@H](O)[C@@H](O)[C@H](O)[C@H](O)CO.CNC[C@H](O)[C@@H](O)[C@H](O)[C@H](O)CO.O=C([O-])CN(CCN(CC(=O)[O-])CC(=O)O)CCN(CC(=O)[O-])CC(=O)O.[Gd+3] [Magnevist@]
relaxivity r1: 4.1 mM⁻¹ s⁻¹
